From patent publication US11566007B2, “Ras inhibitors” (Revolution Medicines, Inc., priority 2019, dated 2023)

What was measured:
Format in all cases: biochemical
KRAS Q61H = KRAS Q61H (Homo sapiens (Human), UniProt P01116+P62937, Q61H); test: Ras-Raf (BRAF RBD) disruption / FRET / MOA assay, KRAS Q61H; conditions: Ras-Raf disruption/FRET/MOA assay; class symbols; read-out: KRAS Q61H FRET data IC50
In short: (§1)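 Compounds (30 μM top final, 10-point 3-fold dilutions) incubated 3 h at 25° C with nucleotide-loaded Ras, cyclophilin A and BRAF RBD. Detection with 10 nM anti-His Eu-W1024 and 50 nM anti-GST allophycocyanin over another 1.5 h. Lowered TR-FRET ratio relative to DMSO wells gives IC50.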

KRAS G13D = KRAS G13D (Homo sapiens (Human), UniProt P01116+P62937, G13D); test: Ras-Raf (BRAF RBD) disruption / FRET / MOA assay, KRAS G13D; conditions: read-out: IC50* KRAS G13D FRET data
Sequence of KRAS G13D (P01116-2 other isoform, or with tags, fused parts or gaps G13D): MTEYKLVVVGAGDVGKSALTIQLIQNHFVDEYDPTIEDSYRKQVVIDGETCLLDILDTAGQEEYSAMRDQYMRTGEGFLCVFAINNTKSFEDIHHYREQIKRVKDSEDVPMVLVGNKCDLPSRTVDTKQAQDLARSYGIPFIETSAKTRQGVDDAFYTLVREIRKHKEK
Sequence of KRAS G13D (P62937 whole entry): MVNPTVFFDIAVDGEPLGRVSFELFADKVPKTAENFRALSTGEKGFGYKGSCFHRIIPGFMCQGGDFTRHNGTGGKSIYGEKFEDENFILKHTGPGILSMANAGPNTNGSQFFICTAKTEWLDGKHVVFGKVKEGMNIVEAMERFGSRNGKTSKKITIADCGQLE
In short: (§2)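 Compound-driven ternary complex of nucleotide-loaded Ras with cyclophilin A, disrupting BRAF RBD binding. 10-point 3-fold dilution from 30 μM final, 3 h at 25° C, then anti-His Eu-W1024 (10 nM) and anti-GST allophycocyanin (50 nM) for 1.5 h. IC50 from TR-FRET ratio decrease versus DMSO.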

NRAS Q61K = NRAS Q61K (Homo sapiens (Human), UniProt P01111+P62937, Q61K); test: Ras-Raf (BRAF RBD) disruption / FRET / MOA assay, NRAS Q61K; conditions: NRAS Q61K; Ras-Raf disruption/FRET/MOA assay; read-out: IC50* NRAS Q61K FRET data
Sequence of NRAS Q61K (P01111 whole entry Q61K): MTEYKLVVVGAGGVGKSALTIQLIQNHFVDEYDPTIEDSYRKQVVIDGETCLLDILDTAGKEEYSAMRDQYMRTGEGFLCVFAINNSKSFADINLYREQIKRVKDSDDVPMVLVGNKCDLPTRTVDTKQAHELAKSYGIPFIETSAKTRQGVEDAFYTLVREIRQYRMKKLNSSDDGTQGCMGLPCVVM
Sequence of NRAS Q61K (P62937 whole entry): as the sequence (P62937 whole entry) above
In short: as §1

KRAS G12D = KRAS G12D (Homo sapiens (Human), UniProt P01116+P62937, G12D); test: Ras-Raf (BRAF RBD) disruption / FRET / MOA assay, KRAS G12D; conditions: Ras-Raf disruption/FRET/MOA assay; class symbols; read-out: KRAS G12D FRET data IC50
Sequence of KRAS G12D (P01116-2 other isoform, or with tags, fused parts or gaps G12D): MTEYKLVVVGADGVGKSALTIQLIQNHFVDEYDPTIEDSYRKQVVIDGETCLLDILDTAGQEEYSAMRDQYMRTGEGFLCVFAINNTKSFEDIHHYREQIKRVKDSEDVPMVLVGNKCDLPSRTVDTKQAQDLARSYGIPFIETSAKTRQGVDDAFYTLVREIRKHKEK
Sequence of KRAS G12D (P62937 whole entry): as the sequence (P62937 whole entry) above
In short: as §2

KRAS WT = KRAS WT (Homo sapiens (Human), UniProt P01116+P62937); test: Ras-Raf (BRAF RBD) disruption / FRET / MOA assay, KRAS WT; conditions: read-out: IC50* KRAS WT FRET data
Sequence of KRAS WT (P01116-2 other isoform, or with tags, fused parts or gaps): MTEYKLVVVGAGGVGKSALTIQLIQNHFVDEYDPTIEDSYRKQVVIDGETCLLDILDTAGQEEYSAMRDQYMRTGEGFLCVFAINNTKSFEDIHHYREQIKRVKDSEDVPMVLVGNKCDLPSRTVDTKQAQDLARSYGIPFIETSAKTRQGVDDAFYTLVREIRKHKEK
Sequence of KRAS WT (P62937 whole entry): as the sequence (P62937 whole entry) above
In short: as §2

K-Ras G12C = K-Ras G12C (Homo sapiens (Human), UniProt P01116+P62937, G12C); test: Ras-Raf (BRAF RBD) disruption / FRET / MOA assay, KRAS G12C; conditions: KRAS G12C; Ras-Raf disruption/FRET/MOA assay; read-out: IC50* KRAS G12C FRET data
Sequence of K-Ras G12C (P01116-2 other isoform, or with tags, fused parts or gaps G12C): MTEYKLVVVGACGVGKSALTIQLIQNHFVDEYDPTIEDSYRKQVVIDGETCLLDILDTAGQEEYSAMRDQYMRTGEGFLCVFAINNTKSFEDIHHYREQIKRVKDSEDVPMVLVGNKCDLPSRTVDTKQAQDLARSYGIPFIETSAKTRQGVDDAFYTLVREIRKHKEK
Sequence of K-Ras G12C (P62937 whole entry): as the sequence (P62937 whole entry) above
In short: as §2

NRAS Q61R = NRAS Q61R (Homo sapiens (Human), UniProt P01111+P62937, Q61R); test: Ras-Raf (BRAF RBD) disruption / FRET / MOA assay, NRAS Q61R; conditions: NRAS Q61R; Ras-Raf disruption/FRET/MOA assay; read-out: IC50* NRAS Q61R FRET data
Sequence of NRAS Q61R (P01111 whole entry Q61R): as the sequence (P01111 whole entry Q61K) above, with K61R counted along it
Sequence of NRAS Q61R (P62937 whole entry): as the sequence (P62937 whole entry) above
In short: as §1

Sequence of KRAS Q61H (P01116-2 other isoform, or with tags, fused parts or gaps Q61H): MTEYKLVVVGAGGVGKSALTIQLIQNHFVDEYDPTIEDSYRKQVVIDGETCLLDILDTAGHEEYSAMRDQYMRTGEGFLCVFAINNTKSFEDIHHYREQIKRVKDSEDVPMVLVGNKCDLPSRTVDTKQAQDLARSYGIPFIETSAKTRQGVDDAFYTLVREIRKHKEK
Sequence of KRAS Q61H (P62937 whole entry): as the sequence (P62937 whole entry) above

Row | Compound | IC50 (KRAS Q61H) [µM] | IC50 (KRAS G13D) [µM] | IC50 (NRAS Q61K) [µM] | IC50 (KRAS G12D) [µM] | IC50 (KRAS WT) [µM] | IC50 (K-Ras G12C) [µM] | IC50 (NRAS Q61R) [µM]
1 | C=CC(=O)N1CCOC2(C1)CN(C(=O)N(C)[C@H](C(=O)N[C@H]1Cc3cccc(c3)-c3ccc4c(c3)c(c(-c3cccnc3[C@H](C)OC)n4CC(F)(F)F)CC(C)(C)COC(=O)[C@@H]3CCCN(N3)C1=O)C(C)C)C2 (atropisomer, axis not shown) [Example A538] | 0.1 to 1 | 0.1 to 1 | 0.1 to 1 | 1 to 10 | 0.1 to 1 | 0.01 to 0.1 | 0.1 to 1
2 | C=CC(=O)N1C[C@@H](N(C)C(=O)N(C)[C@H](C(=O)N[C@H]2Cc3nc(cs3)-c3ccc4c(c3)c(c(-c3cccnc3[C@H](C)OC)n4CC)CC(C)(C)COC(=O)[C@@H]3CCCN(N3)C2=O)C(C)C)[C@@H](C)C1 (atropisomer, axis not shown) [Example A583] | 0.1 to 1 | 1 to 10 | 0.1 to 1 | 1 to 10 | 0.1 to 1 | 0.1 to 1 | 0.1 to 1
3 | C=CC(=O)N1CCOC2(CCN(C(=O)N(C)[C@H](C(=O)N[C@H]3Cc4cccc(c4)-c4ccc5c(c4)c(c(-c4cccnc4[C@H](C)OC)n5CC(F)(F)F)CC(C)(C)COC(=O)[C@@H]4CCCN(N4)C3=O)C(C)C)CC2)C1 (atropisomer, axis not shown) [Example A608] | 0.01 to 0.1 | 0.1 to 1 | 0.1 to 1 | 0.1 to 1 | 0.1 to 1 | 0.1 to 1 | 0.1 to 1
4 | C=CC(=O)N1CCN(C(=O)N(C)[C@H](C(=O)N[C@H]2Cc3nc(cs3)-c3ccc4c(c3)c(c(-c3cccnc3[C@H](C)OC)n4CC)CC(C)(C)COC(=O)[C@@H]3CCCN(N3)C2=O)C(C)C)CC12CC2 (atropisomer, axis not shown) [Example A417] | 0.01 to 0.1 | 0.1 to 1 | 0.01 to 0.1 | 0.1 to 1 | 0.1 to 1 | 0.01 to 0.1 | 0.01 to 0.1
5 | CCn1c(-c2cccnc2[C@H](C)OC)c2c3cc(ccc31)-c1csc(n1)C[C@H](NC(=O)[C@H](C(C)C)N(C)C(=O)N(C)C1CN(C(=O)/C=C/CN(C)C)C1)C(=O)N1CCC[C@H](N1)C(=O)OCC(C)(C)C2 (atropisomer, axis not shown) [Example A361] | 0.1 to 1 | 0.1 to 1 | 0.1 to 1 | 1 to 10 | 0.1 to 1 | 0.01 to 0.1 | 0.1 to 1
6 | C=CC(=O)N1CC[C@H](C(=O)N(C)[C@H](C(=O)N[C@H]2Cc3cc(O)cc(c3)-c3ccc4c(c3)c(c(-c3cc(N5CC(OC)C5)ccn3)n4CC)CC(C)(C)COC(=O)[C@@H]3CCCN(N3)C2=O)C(C)C)C1 [Example A104] | 0.1 to 1 | 1 to 10 | 1 to 10 | > 10 | 1 to 10 | 0.01 to 0.1 | 1 to 10
7 | C=CC(=O)N1CCC2(C1)CN(C(=O)N(C)[C@H](C(=O)N[C@H]1Cc3nc(cs3)-c3ccc4c(c3)c(c(-c3cccnc3[C@H](C)OC)n4CC(F)(F)F)CC(C)(C)COC(=O)[C@@H]3CCCN(N3)C1=O)C(C)C)C2 [Example A603] | 0.01 to 0.1 | 0.1 to 1 | 0.01 to 0.1 | 0.1 to 1 | 0.01 to 0.1 | 0.01 to 0.1 | 0.01 to 0.1
8 | CO[C@@H](C)c1ncccc1-c1c2c3cc(ccc3n1CC(F)(F)F)-c1csc(n1)C[C@H](NC(=O)CCOC1CN(C(=O)C#CC(C)(C)N(C)C)C1)C(=O)N1CCC[C@H](N1)C(=O)OCC(C)(C)C2 (atropisomer, axis not shown) [Example A380] | 1 to 10 | 1 to 10 | 1 to 10 | 1 to 10 | 1 to 10 | < 0.01 | 1 to 10
9 | C=CC(=O)N1CC[C@H](C(=O)N(C)[C@H](C(=O)N[C@H]2Cc3cc(cc(C(F)F)c3)-c3ccc4c(c3)c(c(-c3cccnc3[C@H](C)OC)n4CC(F)(F)F)CC(C)(C)COC(=O)[C@@H]3CCCN(N3)C2=O)C(C)C)C1 (atropisomer, axis not shown) [Example A372] | 0.1 to 1 | 1 to 10 | 1 to 10 | > 10 | 1 to 10 | 0.1 to 1 | 1 to 10
10 | C=CC(=O)N1CCO[C@@H]2CN(C(=O)N(C)[C@H](C(=O)N[C@H]3Cc4nc(cs4)-c4ccc5c(c4)c(c(-c4cccnc4[C@H](C)OC)n5CC)CC(C)(C)COC(=O)[C@@H]4CCCN(N4)C3=O)C(C)C)C[C@@H]21 (atropisomer, axis not shown) [Example A714] | 0.1 to 1 | 1 to 10 | 0.1 to 1 | 1 to 10 | 0.1 to 1 | 0.1 to 1 | 0.1 to 1
11 | CCn1c(-c2cccnc2[C@H](C)OC)c2c3cc(ccc31)N1CCO[C@@H](C[C@H](NC(=O)[C@@H](COC3CCN(C(=O)C#CC(C)(C)N(C)C)CC3)C(C)C)C(=O)N3CCC[C@H](N3)C(=O)OCC(C)(C)C2)C1 (atropisomer, axis not shown) [Example A643, (2R)-2-(((1-(4-(dimethylamino)-4-methylpent-2-ynoyl)piperidin-4-yl)oxy)methyl)-N-((2^2S,6^3S,4S)-1^1-ethyl-1^2-(2-((S)-1-methoxyethyl)pyridin-3-yl)-10,10-dimethyl-5,7-dioxo-6^1,6^2,6^3,6^4,6^5,6^6-hexahydro-1^1H-8-oxa-2(4,2)-morpholina-1(5,3)-indola-6(1,3)-pyridazinacycloundecaphane-4-yl)-3-methylbutanamide] | > 10 | > 10 | > 10 | > 10 | > 10 | 0.01 to 0.1 | > 10
12 | C=CC(=O)N(C)[C@@H]1C[C@H]1N(C)C(=O)N(C)[C@H](C(=O)N[C@H]1Cc2nc(cs2)-c2ccc3c(c2)c(c(-c2cccnc2[C@H](C)OC)n3CC)CC(C)(C)COC(=O)[C@@H]2CCCN(N2)C1=O)C(C)C (atropisomer, axis not shown) [Example A739] | 0.01 to 0.1 | 1 to 10 | 0.01 to 0.1 | 1 to 10 | 0.1 to 1 | 0.1 to 1 | 1 to 10
13 | C=CC(=O)N(C)[C@H]1C[C@@H](N(C)C(=O)N(C)[C@H](C(=O)N[C@H]2Cc3nc(cs3)-c3ccc4c(c3)c(c(-c3cccnc3[C@H](C)OC)n4CC)CC(C)(C)COC(=O)[C@@H]3CCCN(N3)C2=O)C(C)C)C1 (atropisomer, axis not shown) [Example A704] | 0.01 to 0.1 | 0.1 to 1 | 0.01 to 0.1 | 0.1 to 1 | 0.01 to 0.1 | 0.01 to 0.1 | 0.01 to 0.1
14 | C=CC(=O)N1CCC2(CC1)CCN2C(=O)N(C)[C@H](C(=O)N[C@H]1Cc2nc(cs2)-c2ccc3c(c2)c(c(-c2cccnc2[C@H](C)OC)n3CC)CC(C)(C)COC(=O)[C@@H]2CCCN(N2)C1=O)C(C)C (atropisomer, axis not shown) [Example A678] | 0.01 to 0.1 | 0.1 to 1 | 0.01 to 0.1 | 0.1 to 1 | 0.1 to 1 | 0.01 to 0.1 | 0.01 to 0.1
15 | C=CC(=O)N(C)[C@H]1CC1N(C)C(=O)N(C)[C@H](C(=O)N[C@H]1Cc2nc(cs2)-c2ccc3c(c2)c(c(-c2cccnc2[C@H](C)OC)n3CC)CC(C)(C)COC(=O)[C@@H]2CCCN(N2)C1=O)C(C)C (stereo partly drawn) [Example A738] | 0.1 to 1 | 1 to 10 | 0.1 to 1 | 1 to 10 | 0.1 to 1 | 0.1 to 1 | 0.1 to 1
